How the values were obtained:
Assay type in all cases: functional, organism-based
[1] = system: Human immunodeficiency virus 1; assay: Antiviral activity against HIV1
[2] = system: Human immunodeficiency virus 1; assay: Antiviral activity against HIV1 NNTRI resistant Y188L mutant
[3] = system: Human immunodeficiency virus 1; assay: Antiviral activity against HIV1 NNTRI resistant Y181C mutant
[4] = system: Human immunodeficiency virus 1; assay: Antiviral activity against HIV1 NNTRI resistant K103N mutant
[5] = system: Human immunodeficiency virus 1; assay: Antiviral activity against HIV1 NNTRI resistant L100I mutant
[6] = system: Human immunodeficiency virus 1; assay: Antiviral activity against HIV1 NNTRI resistant K103N/L100I mutant

Row | Compound | EC50 [1] [nM] | IC50 [1] [nM] | EC50 [2] [nM] | EC50 [3] [nM] | EC50 [4] [nM] | EC50 [5] [nM] | EC50 [6] [nM]
1 | CCn1c(C)nnc1SCC(=O)Nc1ccccc1Cl | > 10000 | > 10000 |  |  |  |  | 
2 | Cc1ccc(-n2c(C)nnc2SC/C(S)=N/c2ccccc2Cl)cc1 | > 10000 | > 10000 |  |  |  |  | 
3 | Cc1ccc(-n2c(C)nnc2SCC(=O)Nc2ccc(Cl)cc2)cc1 | 1360 | > 10000 |  |  |  |  | 
4 | COc1ccccc1-n1c(C)nnc1SCC(=O)Nc1ccccc1Cl | 59 | > 10000 | > 1650 | 1050 | 1120 | 100 | 
5 | Cc1ccc(-n2c(C)nnc2SCC(=O)Nc2ccccc2)cc1 | 2050 | > 10000 |  |  |  |  | 
6 | Cc1ccc(-n2c(C)nnc2SCC(=O)Nc2ccccn2)cc1 | > 10000 | > 10000 |  |  |  |  | 
7 | Cc1ccc(-n2c(C)nnc2SCC(=O)Nc2ccccc2C)cc1 | 112 | > 10000 |  |  |  |  | 
8 | Cc1ccc(NC(=O)CSc2nnc(C)n2-c2ccc(C)cc2)cc1 | > 10000 | > 10000 |  |  |  |  | 
9 | Cc1ccc(-n2c(C)nnc2SCC(=O)Nc2ccc(C#N)cc2)cc1 | > 10000 | > 10000 |  |  |  |  | 
10 | Cc1ccc(-n2c(C)nnc2SCC(=O)Nc2cccc(Br)c2)cc1 | > 10000 | > 10000 |  |  |  |  | 
11 | Cc1ccc(-n2c(C)nnc2SCC(=O)Nc2cccc(C#N)c2)cc1 | > 10000 | > 10000 |  |  |  |  | 
12 | Cc1ccc(-n2c(C)nnc2SCC(=O)Nc2cc(Cl)ccc2Cl)cc1 | 37 | > 10000 | > 10000 | 769 | 1040 | 835 | 
13 | Cc1ccc(-n2c(C)nnc2SCC(=O)Nc2ccccc2F)cc1 | 68 | > 10000 | > 10000 | 4030 | 3270 | 1380 | 
14 | COc1cccc(NC(=O)CSc2nnc(C)n2-c2ccc(C)cc2)c1 | 22 | > 10000 | 2190 | 161 | 82 | 31 | 
15 | Cc1ccc(-n2c(C)nnc2SCC(=O)Nc2ccccc2Br)cc1 | > 10000 | > 10000 |  |  |  |  | 
16 | Cc1ccc(-n2c(SCC(=O)Nc3ccccc3Cl)nnc2-c2ccncc2)cc1 | 4210 | > 10000 |  |  |  |  | 

Row | Compound | EC50 [1] [nM] | IC50 [1] [nM] | EC50 [2] [nM] | EC50 [3] [nM] | EC50 [4] [nM] | EC50 [5] [nM] | EC50 [6] [nM]
17 | COc1ccccc1-c1nnc(SCC(=O)Nc2ccccc2Cl)n1-c1ccc(C)cc1 | 2070 | > 10000 |  |  |  |  | 
18 | Cc1ccc(-n2c(C)nnc2SCC(=O)Nc2ccc3ccccc3c2)cc1 | 412 | > 10000 |  |  |  |  | 
19 | Cc1ccc(-n2c(C)nnc2SCC(=O)Nc2cccc(C)c2C)cc1 | 128 | > 10000 |  |  |  |  | 
20 | Cc1ccc(-n2c(C)nnc2SCC(=O)Nc2ccccc2C(F)(F)F)cc1 | 72 | > 10000 | > 10000 | 1380 | 1510 | 488 | 
21 | Cc1nnc(SCC(=O)Nc2ccccc2Cl)n1-c1cccc2c1OCCO2 | 18 | > 10000 | > 3330 | 219 | 565 | 170 | 
22 | Cc1ccc(-n2c(C)nnc2SCC(=O)Nc2ccncn2)cc1 | > 10000 | > 10000 |  |  |  |  | 
23 | Cc1ccc(-n2c(C)nnc2SCC(=O)Nc2ccccc2Cl)cc1 | 3 | > 10000 | 4310 | 23 | 65 |  | 182
24 | Cc1ccc(-n2c(C)nnc2SCC(=O)Nc2ccc(Cl)cc2Cl)cc1 | 20 | > 10000 | > 3330 | 440 | 577 | 186 | 
25 | COc1ccc(-n2c(C)nnc2SCC(=O)Nc2ccccc2Cl)cc1 | 79 | > 10000 | > 3330 | 1430 | 913 | 1230 | 
26 | Cc1ccc(-n2c(C)nnc2SCC(=O)N2CCOCC2)cc1 | > 10000 | > 10000 |  |  |  |  | 
27 | COC(=O)c1ccccc1NC(=O)CSc1nnc(C)n1-c1ccc(C)cc1 | 614 | > 10000 |  |  |  |  | 
28 | Cc1ccc(-n2c(C)nnc2SCC(=O)Nc2cccc(C(F)(F)F)c2)cc1 | 2870 | > 10000 |  |  |  |  | 
29 | Cc1ccc(-n2c(C)nnc2SCC(=O)Nc2ccccc2[N+](=O)[O-])cc1 | 1 | > 10000 | 3600 | 16 | 6 |  | 24
30 | O=C1Nc2ccc(Cl)cc2C(C#CC2CC2)(C(F)(F)F)O1 (single isomer, unassigned) [EFAVIRENZ] |  | 10000 |  |  | 19 | 13 | 
31 | Cc1ccnc2c1NC(=O)c1cccnc1N2C1CC1 [NEVIRAPINE] |  | > 10000 | > 10000 | > 10000 |  |  | 

The next lines start with results.

Row | EC50 [1] [nM] | IC50 [1] [nM] | Compound | EC50 [2] [nM] | EC50 [3] [nM] | EC50 [4] [nM] | EC50 [5] [nM] | EC50 [6] [nM]
32 | > 10000 | > 10000 | Cc1ccc(-n2c(C)nnc2SCC(=O)N2CCCCC2)cc1 |  |  |  |  | 
33 | 3410 | > 10000 | Cc1nnc(SCC(=O)Nc2ccccc2Cl)n1Cc1ccccc1 |  |  |  |  | 
34 | > 10000 | > 10000 | CC(=O)N1CCN(C(=O)CSc2nnc(C)n2-c2ccc(C)cc2)CC1 |  |  |  |  | 
35 | 170 | > 10000 | Cc1ccc(-n2c(C)nnc2SCC(=O)Nc2ccccc2C#N)cc1 |  |  |  |  | 
36 | > 10000 | > 10000 | Cc1ccc(-n2c(C)nnc2SCC(=O)Nc2ccc(Br)cc2)cc1 |  |  |  |  | 
37 | > 10000 | > 10000 | Cc1ccc(-n2c(C)nnc2SCC(=O)Nc2ccc([N+](=O)[O-])cc2)cc1 |  |  |  |  | 
38 | 1840 | > 10000 | COc1ccc(NC(=O)CSc2nnc(C)n2-c2ccc(C)cc2)cc1 |  |  |  |  | 
39 | 1070 | > 10000 | Cc1ccc(-n2c(COc3ccccc3)nnc2SCC(=O)Nc2ccccc2Cl)cc1 |  |  |  |  | 
40 | > 10000 | > 10000 | CCCCCCCCCNC(=O)CSc1nnc(C)n1-c1ccc(C)cc1 |  |  |  |  | 
41 | > 10000 | > 10000 | Cc1ccc(-n2c(C)nnc2SCC(=O)NC(C)(C)C)cc1 |  |  |  |  | 
42 | > 10000 | > 10000 | COC(=O)c1cccc(NC(=O)CSc2nnc(C)n2-c2ccc(C)cc2)c1 |  |  |  |  | 
43 | 215 | > 10000 | Cc1ccc(-n2c(C)nnc2SCC(=O)Nc2ccc(Cl)cc2C)cc1 |  |  |  |  | 
44 | > 10000 | > 10000 | Cc1ccc(-n2c(C)nnc2SCC(=O)Nc2cccc([N+](=O)[O-])c2)cc1 |  |  |  |  | 
45 | 822 | > 10000 | COC(=O)c1ccc(NC(=O)CSc2nnc(C)n2-c2ccc(C)cc2)cc1 |  |  |  |  | 
46 | 3780 | > 10000 | Cc1ccc(-n2c(SCC(=O)Nc3ccccc3Cl)nnc2-c2ccc(Cl)cc2)cc1 |  |  |  |  | 
47 | 1420 | > 10000 | Cc1ccc(-n2c(Cc3ccccc3)nnc2SCC(=O)Nc2ccccc2Cl)cc1 |  |  |  |  | 
48 | > 10000 | > 10000 | Cc1nnc(SCC(=O)Nc2ccccc2Cl)n1C |  |  |  |  | 
49 | 310 | > 10000 | Cc1nnc(SCC(=O)Nc2ccccc2Cl)n1-c1ccccc1 |  |  |  |  | 
50 | > 10000 | > 10000 | Cc1ccc(-n2c(C)nnc2SCC(=O)N(C)c2ccccc2Cl)cc1 |  |  |  |  | 

Source: ChEMBL document CHEMBL1146046, “Synthesis and biological evaluations of sulfanyltriazoles as novel HIV-1 non-nucleoside reverse transcriptase inhibitors” (Bioorg Med Chem Lett, 2006)
